target: T1, Nav 1.7 (Homo sapiens (Human), UniProt Q15858); test: in-vitro Nav 1.7 PX data; assay type: cell-based; details: in-vitro PX
T1 sequence (Q15858 whole entry): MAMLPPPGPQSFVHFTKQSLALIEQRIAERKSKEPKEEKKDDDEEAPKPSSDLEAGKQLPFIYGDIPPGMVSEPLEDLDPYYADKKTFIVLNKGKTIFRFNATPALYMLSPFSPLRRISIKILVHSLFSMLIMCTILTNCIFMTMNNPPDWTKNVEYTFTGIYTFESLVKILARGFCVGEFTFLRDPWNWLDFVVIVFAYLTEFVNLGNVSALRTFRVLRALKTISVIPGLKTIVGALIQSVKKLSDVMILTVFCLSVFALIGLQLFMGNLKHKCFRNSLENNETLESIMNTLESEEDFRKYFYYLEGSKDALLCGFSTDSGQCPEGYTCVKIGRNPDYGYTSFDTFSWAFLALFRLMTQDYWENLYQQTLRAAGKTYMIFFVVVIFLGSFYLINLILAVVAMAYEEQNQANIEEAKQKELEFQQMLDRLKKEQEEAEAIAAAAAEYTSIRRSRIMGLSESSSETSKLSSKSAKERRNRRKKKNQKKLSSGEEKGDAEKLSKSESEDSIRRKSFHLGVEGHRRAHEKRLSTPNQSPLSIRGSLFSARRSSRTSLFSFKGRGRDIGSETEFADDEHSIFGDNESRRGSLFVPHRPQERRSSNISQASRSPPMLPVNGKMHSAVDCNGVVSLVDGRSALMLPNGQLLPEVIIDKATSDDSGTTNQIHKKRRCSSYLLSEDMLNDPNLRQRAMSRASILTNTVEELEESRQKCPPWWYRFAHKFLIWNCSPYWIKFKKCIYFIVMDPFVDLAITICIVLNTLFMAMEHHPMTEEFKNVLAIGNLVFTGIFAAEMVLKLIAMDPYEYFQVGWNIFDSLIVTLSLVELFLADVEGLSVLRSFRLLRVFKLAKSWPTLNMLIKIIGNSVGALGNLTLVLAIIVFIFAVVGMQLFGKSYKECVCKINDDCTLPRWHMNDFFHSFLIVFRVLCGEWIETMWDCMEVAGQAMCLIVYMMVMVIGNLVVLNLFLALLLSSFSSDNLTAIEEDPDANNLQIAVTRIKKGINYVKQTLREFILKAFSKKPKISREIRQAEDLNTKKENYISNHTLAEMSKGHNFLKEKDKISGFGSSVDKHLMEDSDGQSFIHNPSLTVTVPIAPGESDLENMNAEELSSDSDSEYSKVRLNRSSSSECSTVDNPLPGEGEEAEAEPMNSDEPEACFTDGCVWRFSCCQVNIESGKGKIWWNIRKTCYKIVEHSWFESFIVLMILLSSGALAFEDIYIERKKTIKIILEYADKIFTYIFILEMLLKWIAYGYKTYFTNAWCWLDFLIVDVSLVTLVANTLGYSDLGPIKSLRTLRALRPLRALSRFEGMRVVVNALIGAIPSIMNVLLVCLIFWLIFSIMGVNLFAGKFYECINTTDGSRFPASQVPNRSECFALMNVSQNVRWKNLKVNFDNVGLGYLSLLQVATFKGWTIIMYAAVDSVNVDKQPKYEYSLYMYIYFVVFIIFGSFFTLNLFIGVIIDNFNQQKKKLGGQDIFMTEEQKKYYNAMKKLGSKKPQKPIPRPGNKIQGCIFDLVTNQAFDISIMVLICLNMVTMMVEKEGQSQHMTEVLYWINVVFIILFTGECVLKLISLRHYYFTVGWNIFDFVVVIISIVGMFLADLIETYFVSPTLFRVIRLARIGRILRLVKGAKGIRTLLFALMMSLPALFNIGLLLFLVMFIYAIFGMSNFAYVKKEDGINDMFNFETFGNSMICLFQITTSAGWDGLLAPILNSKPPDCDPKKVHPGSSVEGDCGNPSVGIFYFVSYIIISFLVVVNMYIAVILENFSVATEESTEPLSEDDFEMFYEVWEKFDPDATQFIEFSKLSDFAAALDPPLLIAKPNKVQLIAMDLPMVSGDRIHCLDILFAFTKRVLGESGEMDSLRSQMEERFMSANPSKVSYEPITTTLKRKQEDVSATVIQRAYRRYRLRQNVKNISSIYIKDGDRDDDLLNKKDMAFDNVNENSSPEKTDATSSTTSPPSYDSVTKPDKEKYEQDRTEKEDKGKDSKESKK

IC50 [nM] | Compound
1870 | COc1nc(Cl)c(Cl)cc1-c1nccc2cc(S(=O)(=O)Nc3nncs3)ccc12 [Example 240, 1-(5,6-dichloro-2-methoxy-3-pyridinyl)-N-1,3,4-thiadiazol-2-yl-6-isoquinolinesulfonamide]
1870 | COc1nc(N(C)C)c(Cl)cc1-c1nccc2cc(S(=O)(=O)Nc3nncs3)ccc12 [Example 242, 1-(5-chloro-6-(dimethylamino)-2-methoxy-3-pyridinyl)-N-1,3,4-thiadiazol-2-yl-6-isoquinolinesulfonamide]

target: T1, Nav 1.7; test: Nav 1.7 in vitro PX assay (PatchXpress whole cell voltage clamp); assay type: cell-based; details: HEK 293 cells stably transfected with human Nav1.7; PatchXpress; partially inactivated state;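 note: holding potential set for 20 to 50% inactivation, sodium current evoked by a 20 ms step to −10 mV, peak current inhibition read after compound exposure, 3–5 cells per concentration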

Compound | IC50 [nM]
COc1cc(-c2cccc(F)c2)c(Cl)cc1-c1c(C)ncc2cc(S(=O)(=O)Nc3ccon3)ccc12 (atropisomer, axis not shown; (M)) [Example 317, (M)-4-(2-chloro-3′-fluoro-5-methoxy-4-biphenylyl)-N-3-isoxazolyl-3-methyl-7-isoquinolinesulfonamide] | 72
COc1cc(-c2cccc(F)c2)c(Cl)cc1-c1c(C)cnc2cc(S(=O)(=O)Nc3ccon3)ccc12 (atropisomer, axis not shown; (M)) [Example 330, (M)-4-(2-chloro-3′-fluoro-5-methoxy-[1,1′-biphenyl]-4-yl)-N-(isoxazol-3-yl)-3-methylquinoline-7-sulfonamide] | 496
CCc1cnc2cc(S(=O)(=O)Nc3ccon3)ccc2c1-c1cc(Cl)c(-c2cccc(F)c2)cc1OC (atropisomer, axis not shown; (M)) [Example 332, (M)-4-(2-chloro-3′-fluoro-5-methoxy-[1,1′-biphenyl]-4-yl)-3-ethyl-N-(isoxazol-3-yl)quinoline-7-sulfonamide] | 33700
COc1cc(-c2cccc(F)c2)c(Cl)cc1-c1c(C#N)cnc2cc(S(=O)(=O)Nc3ccon3)ccc12 (atropisomer, axis not shown; (M)) [Example 334, (M)-4-(2-chloro-3′-fluoro-5-methoxy-[1,1′-biphenyl]-4-yl)-3-cyano-N-(isoxazol-3-yl)quinoline-7-sulfonamide] | 101
COc1cc(-c2cccc(F)c2)c(Cl)cc1-c1c(O)cnc2cc(S(=O)(=O)Nc3ccon3)ccc12 (atropisomer, axis not shown; (M)) [Example 337, (M)-4-(2-chloro-3′-fluoro-5-methoxy-[1,1′-biphenyl]-4-yl)-3-hydroxy-N-(isoxazol-3-yl)quinoline-7-sulfonamide] | 71
COc1cc(-c2cccc(F)c2)c(Cl)cc1-c1c(OC)cnc2cc(S(=O)(=O)Nc3ccon3)ccc12 (atropisomer, axis not shown; (M)) [Example 339, (M)-4-(2-chloro-3′-fluoro-5-methoxy-[1,1′-biphenyl]-4-yl)-N-(isoxazol-3-yl)-3-methoxyquinoline-7-sulfonamide] | 630
COc1cc(-c2cccc(F)c2)c(Cl)cc1-c1c(C)nnc2cc(S(=O)(=O)Nc3ccon3)ccc12 (atropisomer, axis not shown; (M)) [Example 441, (M)-4-(2-chloro-3′-fluoro-5-methoxy-[1,1′-biphenyl]-4-yl)-N-(isoxazol-3-yl)-3-methylcinnoline-7-sulfonamide] | 52
CCc1nnc2cc(S(=O)(=O)Nc3ccon3)ccc2c1-c1cc(Cl)c(-c2cccc(F)c2)cc1OC (atropisomer, axis not shown; (M)) [Example 443, (M)-4-(2-chloro-3′-fluoro-5-methoxy-[1,1′-biphenyl]-4-yl)-3-ethyl-N-(isoxazol-3-yl)cinnoline-7-sulfonamide] | 87
COc1cc(-c2cccc(C(F)(F)F)c2)c(F)cc1-c1c2ccc(S(=O)(=O)Nc3ccon3)cc2cc(=O)n1C (atropisomer, axis not shown; (M)) [Example 552, (M)-1-(2-fluoro-5-methoxy-3′-(trifluoromethyl)-4-biphenylyl)-N-3-isoxazolyl-2-methyl-3-oxo-2,3-dihydro-6-isoquinolinesulfonamide] | 1250
